In ChEMBL document CHEMBL5505987 (Eur J Med Chem, 2024):
Active and inactive are the calls of the source. No cut-off for these calls is given here.

Columns and labels:
[1] = test system: MDA-MB-231; test: Reduction of ATP level in human MDA-MB-231 cells incubated for 24 hrs by colorimetric based ATP Content Assay Kit; assay type: functional, cell-based; conditions: dose 1-4 µM
[2] = test system: MDA-MB-231; test: Induction of cell cycle arrest in human MDA-MB-231 cells assessed as accumulation of cells at G0/G1 phase at 1 uM measured after 24 hrs by PI staining by flow cytometry; assay type: functional
[3] = test system: MDA-MB-231; test: Anti-invasive activity in human MDA-MB-231 cells assessed as reduction in cell invasion incubated for 24 hrs by Transwell assay; assay type: functional, cell-based; conditions: dose 3-6 µM
[4] = test system: MDA-MB-231; test: Anti-tumor activity against human MDA-MB-231 cells assessed as change in TGF-beta1/Smad signaling pathway by measuring increase in TGF-beta1 level after 24 hrs incubation by Western blot analysis; assay type: functional, cell-based; conditions: dose 1-4 µM
[5] = test system: MDA-MB-231; test: Anti-tumor activity against human MDA-MB-231 cells assessed as change in TGF-beta1/Smad signaling pathway by measuring fluorescence intensity of TGF-beta1 level at 2 to 4 uM after 24 hrs incubation by immunofluorescence staining assay; assay type: functional, cell-based; conditions: dose 2-4 µM
[6] = test system: A549; test: Cytotoxicity against human A549 cells assessed as cell viability by MTT assay; assay type: functional, cell-based
[7] = test system: MDA-MB-231; test: Anti-tumor activity against human MDA-MB-231 cells assessed as change in TGF-beta1/Smad signaling pathway by measuring fluorescence intensity of p-Smad2 level at 2 to 4 uM after 24 hrs incubation by immunofluorescence staining assay; assay type: functional, cell-based; conditions: dose 2-4 µM
[8] = test system: 4T1; test: Cytotoxicity against mouse 4T1 cells assessed as cell viability by MTT assay; assay type: functional, cell-based
[9] = test system: 4T1; test: Induction of cell cycle arrest in mouse 4T1 cells assessed as accumulation of cells at G0/G1 phase at 1.5 uM measured after 24 hrs by PI staining by flow cytometry; assay type: functional
[10] = test system: MDA-MB-231; test: Anti-metastatic activity in human MDA-MB-231 cells assessed as increase in E-cadherin protein level at 1 to 4 uM by Western blotting analysis; assay type: functional, cell-based; conditions: dose 1-4 µM
[11] = test system: MDA-MB-231; test: Induction of apoptosis in human MDA-MB-231 cells assessed as increase in apoptotic rate at 1 uM incubated for 24 hrs by Annexin V-FITC/PI double staining by flow cytometry; assay type: functional
[12] = test system: MDA-MB-231; test: Induction of DNA damage in human MDA-MB-231 cells assessed as increase in gamma-H2AX focal expression at 2 to 4 uM by immunofluorescence staining assay; assay type: functional, cell-based; conditions: dose 2-4 µM
[13] = Cytotoxicity against human BEAS-2B cells assessed as cell viability by MTT assay; assay type: toxicity, cell-based
[14] = test system: MDA-MB-231; test: Anti-tumor activity against human MDA-MB-231 cells assessed as change in TGF-beta1/Smad signaling pathway by measuring increase in p-Smad2 level after 24 hrs incubation by Western blot analysis; assay type: functional, cell-based; conditions: dose 1-4 µM
[15] = test system: 4T1; test: Inhibition of colony formation in mouse 4T1 cells assessed as reduction in colony formation treated for 10 days medium refreshed every two days by crustal violet based assay; assay type: functional, cell-based; conditions: time 10.0 day
[16] = test system: 4T1; test: Anti-invasive activity in mouse 4T1 cells assessed as reduction in cell invasion incubated for 24 hrs by Transwell assay; assay type: functional, cell-based; conditions: dose 3-6 µM
[17] = test system: 4T1; test: Induction of DNA damage in mouse 4T1 cells assessed as increase in gamma-H2AX focal expression at 2 to 4 uM by immunofluorescence staining assay; assay type: functional, cell-based; conditions: dose 2-4 µM
[18] = test system: MDA-MB-231; test: Induction of cell cycle arrest in human MDA-MB-231 cells assessed as accumulation of cells at G0/G1 phase at 4 uM measured after 24 hrs by PI staining by flow cytometry; assay type: functional
[19] = test system: MDA-MB-231; test: Induction of cell cycle arrest in human MDA-MB-231 cells assessed as accumulation of cells at G0/G1 phase measured after 24 hrs in presence of SB-431542 TGF-beta signaling inhibitor by PI staining by flow cytometry; assay type: functional, cell-based
[20] = test system: MDA-MB-231; test: Induction of ROS production in human MDA-MB-231 cells at 1 to 4 uM incubated for 24 hrs by flow cytometry; assay type: functional, cell-based; conditions: dose 1-4 µM
[21] = test system: MDA-MB-231; test: Reduction in PCNA protein expression in human MDA-MB-231 cells by Western blotting analysis; assay type: functional, cell-based; conditions: dose 1-4 µM
[22] = test system: MDA-MB-231; test: Induction of cell cycle arrest in human MDA-MB-231 cells assessed as reduction in CDK6 expression at 1 to 4 uM measured after 24 hrs by immunoblotting assay; assay type: functional, cell-based; conditions: dose 1-4 µM
[23] = test system: 4T1; test: Reduction of ATP level in mouse 4T1 cells incubated for 24 hrs by colorimetric based ATP Content Assay Kit; assay type: functional, cell-based; conditions: dose 1-4 µM
[24] = test system: MDA-MB-231; test: Anti-tumor activity against human MDA-MB-231 cells assessed as change in TGF-beta1/Smad signaling pathway by measuring increase in p-Smad3 level after 24 hrs incubation by Western blot analysis; assay type: functional, cell-based; conditions: dose 1-4 µM
[25] = test system: 4T1; test: Anti-proliferative activity against mouse 4T1 cells assessed as cell viability measured after 24 hrs by MTT assay; assay type: functional, cell-based; conditions: dose 1-8 µM
[26] = test system: 4T1; test: Induction of ROS production in mouse 4T1 cells at 1 to 4 uM incubated for 24 hrs by flow cytometry; assay type: functional, cell-based; conditions: dose 1-4 µM
[27] = test system: MDA-MB-231; test: Anti-tumor activity against human MDA-MB-231 cells assessed as decrease in cell viability at 8 uM incubated for 24 hrs in presence of SB-431542 TGF-beta signaling inhibitor by MTT assay; assay type: functional, cell-based
[28] = test system: MDA-MB-231; test: Anti-metastatic activity in human MDA-MB-231 cells assessed as decrease in ZEB1 protein level at 1 to 4 uM by Western blotting analysis; assay type: functional, cell-based; conditions: dose 1-4 µM
[29] = test system: 4T1; test: Anti-tumor activity against mouse 4T1 cells assessed as decrease in cell viability at 8 uM incubated for 24 hrs in presence of SB-431542 TGF-beta signaling inhibitor by MTT assay; assay type: functional, cell-based
[30] = test system: MDA-MB-231; test: Induction of apoptosis in human MDA-MB-231 cells assessed as increase in cleaved caspase 9 expression at 1 to 4 uM incubated for 24 hrs by Western blotting analysis; assay type: functional, cell-based; conditions: dose 1-4 µM

Structure (SMILES): O=C1C[C@@H](c2ccccc2)Oc2cc(O)c([C@H](/C=C/C[C@@H](O)CCc3ccccc3)c3ccccc3)c(O)c21
- inhibition [1]: Active
- Activity [2]: 49.59%
- Activity [3]: Dose-Dependent Effect
- Activity [4]: Dose-Dependent Effect
- Activity [5]: Active
- IC50 [6]: 3.21 µM
- Activity [7]: Active
- IC50 [8]: 2.82 µM
- Activity [9]: 55.78%
- Activity [10]: Active
- Activity [11]: 6.84%
- Activity [12]: Active
- IC50 [13]: 5.27 µM
- Activity [14]: Dose-Dependent Effect
- inhibition [15]: Dose-Dependent Effect
- Activity [16]: Dose-Dependent Effect
- Activity [17]: Active
- Activity [18]: 71.78%
- Activity [19]: inactive
- Activity [20]: Active
- inhibition [21]: Dose-Dependent Effect
- Activity [22]: Active
- inhibition [23]: Active
- Activity [24]: Dose-Dependent Effect
- Activity [25]: Dose-Dependent Effect
- Activity [26]: Active
- Activity [27]: inactive
- Activity [28]: Active
- Activity [29]: inactive
- Activity [30]: Active
